Earlier results as cited in patent publication US10716831B2, “Methods for inhibiting infectious peritonitis” (priority 2014, dated 2020).

Columns and labels:
[1] = test system: non-traumatic generalized abdominal sepsis; settings: subcutaneous, with systemic antibiotics; Orozco et al 2006
[2] = test system: cecal ligation and puncture; settings: mice, subcutaneous injection; Gennari et al 1994
[3] = test system: monocytes; settings: in vitro; Volk et al 1991
[4] = test system: bacterial peritonitis; settings: mice, intraperitoneal for 5 days; Austin et al 1995
[5] = test system: peritoneal macrophages; settings: intraperitoneal; Selgas et al 1996
[6] = third and last day of treatment
[7] = in vivo
[8] = test system: Pseudomonas aeruginosa; settings: controlled clinical trials, orally or intravenously administered, maximum
[9] = test system: bacteria of the B. fragilis group
[10] = test system: resistant bacterial strains; settings: controlled clinical trials, orally or intravenously administered; overall
[11] = test system: polymorphonuclear leukocytes
[12] = test system: Staphylococcus, Streptococcus, Neisseria, Escherichia, Proteus, Serratia, Salmonella, Shigella, Pseudomonas, Haemophilus and Vibrio; settings: aerobic genera
[13] = test system: infectious peritonitis; settings: combination with imipenem; Pachón-Ibáñez et al 2011
[14] = intraperitoneal compared with intravenous administration; Tobudic et al 2012
[15] = test system: Peptostreptococcus (including Peptoniphilus, Finegoldia and Anaerococcus) and Fusobacterium; settings: anaerobic genera
[16] = test system: Klebsiella and Enterobacter spp.
[17] = test system: strains of organisms from the susceptible genera
[18] = not given; remark: listed apart in the source
[19] = test system: fecal peritonitis; settings: mice, prophylactic administration; Barsig et al 1996
[20] = test system: peritonitis induced by cecal ligation and puncture; settings: rats, systemic; Toda et al 1994

GM-CSF: cytokine of the colony-stimulating factor family; mature human protein SEQ ID NO: 2
rate of infectious complications and length of hospitalization [1]: reduced | mortality [2]: significantly reduced | loss of HLA-DR antigen expression to <20% [3]: reversed | survival [4]: improved survival | peritoneal macrophage numbers [5]: large increase | peritoneal transport of water or solutes [5]: did not affect | minor flu-like symptoms [6]: 2 of 8

C[C@@H]1O[C@@H]1P(=O)(O)O [Fosfomycin disodium]
local or oral tolerability [7]: locally irritant if un-neutralized | solubility in water: highly soluble in water | pH of 5% solution: 9.0-10.5

C[C@@H]1O[C@@H]1P(=O)(O)O [fosfomycin, [(2R,3S)-3-methyloxiran-2-yl]phosphonic acid]
appearance of resistant bacterial strains [8]: 15% | antibacterial activity [9]: not against | appearance of resistant bacterial strains [10]: 3.0% | concentration in polymorphonuclear leukocytes relative to extracellular fluid [11]: twice those of the extracellular fluid | antibacterial activity [12]: highly active | synergy and in-vivo efficacy with imipenem [13]: showed synergy and high in-vivo efficacy | intraperitoneal levels [14]: superior intraperitoneal levels | antibacterial activity [15]: active | antibacterial activity [16]: active | tested strains showing synergistic effect ([17]; early studies, various antibiotic combinations): 70-100% | synergy rates ([17]; subsequent more extensive studies): 36-74% | eosinophilia ([18]; Gobernado 2003): 0.2% | transient rashes (allergy) ([18]; Gobernado 2003): 0.3 % of cases | transiently raised liver enzymes ([18]; Gobernado 2003): 0.3 % of cases | toxicity to mammalian cells and organs ([18]; fosfomycin disodium at intravenous doses of up to 0.5 g/kg/day in human patients): remarkably non-toxic

C[C@@H]1O[C@@H]1P(=O)(O)O.NC(CO)(CO)CO [Fosfomycin trometamol]
local or oral tolerability [7]: well tolerated when given orally | solubility in water: highly soluble in water | pH of 5% solution: 3.5-5.5

B1: recombinant murine GM-CSF: recombinant murine GM-CSF used in rat and mouse peritonitis studies (protein, UniProt P01587 18-141, looked up)
Granulocyte-macrophage …: APTRSPITVTRPWKHVEAIKEALNLLDDMPVTLNEEVEVVSNEFSFKKLTCVQTRLKIFEQGLRGNFTKLKGALNMTASYYQTYCPPTPETDCETQVTTYADFIDSLKTFLTDIPFECKKPGQK
leukocyte numbers and protection [19]: neither augmented leukocyte numbers nor protected mice | survival rate [20]: did not improve
